Measurements published in BindingDB's records for doi:10.1124/jpet.105.084830 (University of Tokyo, 2005).

Tests used:
[1] = target: T1, Bile salt export pump (Rattus norvegicus, UniProt O70127)
T1 sequence (O70127 whole entry): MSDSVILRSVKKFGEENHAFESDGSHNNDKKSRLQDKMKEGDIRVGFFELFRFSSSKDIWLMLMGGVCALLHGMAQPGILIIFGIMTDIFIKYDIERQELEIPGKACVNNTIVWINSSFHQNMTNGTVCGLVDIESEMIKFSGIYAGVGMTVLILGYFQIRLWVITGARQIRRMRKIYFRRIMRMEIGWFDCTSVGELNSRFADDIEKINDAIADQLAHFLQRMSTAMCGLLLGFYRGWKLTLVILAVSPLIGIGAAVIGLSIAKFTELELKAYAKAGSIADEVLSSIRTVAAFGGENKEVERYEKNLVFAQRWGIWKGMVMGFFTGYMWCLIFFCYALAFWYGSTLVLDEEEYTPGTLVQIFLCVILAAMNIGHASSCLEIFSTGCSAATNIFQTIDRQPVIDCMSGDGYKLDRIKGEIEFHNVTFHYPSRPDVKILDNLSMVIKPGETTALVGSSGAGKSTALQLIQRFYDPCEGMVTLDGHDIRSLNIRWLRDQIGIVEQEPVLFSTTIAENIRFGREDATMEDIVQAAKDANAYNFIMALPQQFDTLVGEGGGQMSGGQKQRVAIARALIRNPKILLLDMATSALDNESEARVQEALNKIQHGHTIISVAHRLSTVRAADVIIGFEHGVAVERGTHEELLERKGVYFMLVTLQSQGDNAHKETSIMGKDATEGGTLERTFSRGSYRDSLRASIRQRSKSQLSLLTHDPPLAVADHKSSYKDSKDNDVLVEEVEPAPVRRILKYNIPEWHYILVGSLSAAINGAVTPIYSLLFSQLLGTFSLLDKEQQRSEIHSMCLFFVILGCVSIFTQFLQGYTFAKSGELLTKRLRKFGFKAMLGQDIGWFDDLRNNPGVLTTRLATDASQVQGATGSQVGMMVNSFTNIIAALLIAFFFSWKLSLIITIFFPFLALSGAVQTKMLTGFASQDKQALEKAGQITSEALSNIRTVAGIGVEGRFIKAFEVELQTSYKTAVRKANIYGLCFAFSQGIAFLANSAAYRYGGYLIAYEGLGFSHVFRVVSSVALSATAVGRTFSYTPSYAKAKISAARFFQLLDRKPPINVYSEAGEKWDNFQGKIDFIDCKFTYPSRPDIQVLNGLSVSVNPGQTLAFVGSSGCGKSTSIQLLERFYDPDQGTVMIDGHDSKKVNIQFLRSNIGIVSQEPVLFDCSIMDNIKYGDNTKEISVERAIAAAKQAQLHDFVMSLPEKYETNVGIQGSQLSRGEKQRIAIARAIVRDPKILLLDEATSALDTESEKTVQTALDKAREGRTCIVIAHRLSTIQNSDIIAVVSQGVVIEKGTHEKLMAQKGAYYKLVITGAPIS

[2] = target: Bile salt export pump (Homo sapiens, UniProt O95342)
Bile salt export pump (Homo sapiens, UniProt O95342), sequence (O95342 whole entry): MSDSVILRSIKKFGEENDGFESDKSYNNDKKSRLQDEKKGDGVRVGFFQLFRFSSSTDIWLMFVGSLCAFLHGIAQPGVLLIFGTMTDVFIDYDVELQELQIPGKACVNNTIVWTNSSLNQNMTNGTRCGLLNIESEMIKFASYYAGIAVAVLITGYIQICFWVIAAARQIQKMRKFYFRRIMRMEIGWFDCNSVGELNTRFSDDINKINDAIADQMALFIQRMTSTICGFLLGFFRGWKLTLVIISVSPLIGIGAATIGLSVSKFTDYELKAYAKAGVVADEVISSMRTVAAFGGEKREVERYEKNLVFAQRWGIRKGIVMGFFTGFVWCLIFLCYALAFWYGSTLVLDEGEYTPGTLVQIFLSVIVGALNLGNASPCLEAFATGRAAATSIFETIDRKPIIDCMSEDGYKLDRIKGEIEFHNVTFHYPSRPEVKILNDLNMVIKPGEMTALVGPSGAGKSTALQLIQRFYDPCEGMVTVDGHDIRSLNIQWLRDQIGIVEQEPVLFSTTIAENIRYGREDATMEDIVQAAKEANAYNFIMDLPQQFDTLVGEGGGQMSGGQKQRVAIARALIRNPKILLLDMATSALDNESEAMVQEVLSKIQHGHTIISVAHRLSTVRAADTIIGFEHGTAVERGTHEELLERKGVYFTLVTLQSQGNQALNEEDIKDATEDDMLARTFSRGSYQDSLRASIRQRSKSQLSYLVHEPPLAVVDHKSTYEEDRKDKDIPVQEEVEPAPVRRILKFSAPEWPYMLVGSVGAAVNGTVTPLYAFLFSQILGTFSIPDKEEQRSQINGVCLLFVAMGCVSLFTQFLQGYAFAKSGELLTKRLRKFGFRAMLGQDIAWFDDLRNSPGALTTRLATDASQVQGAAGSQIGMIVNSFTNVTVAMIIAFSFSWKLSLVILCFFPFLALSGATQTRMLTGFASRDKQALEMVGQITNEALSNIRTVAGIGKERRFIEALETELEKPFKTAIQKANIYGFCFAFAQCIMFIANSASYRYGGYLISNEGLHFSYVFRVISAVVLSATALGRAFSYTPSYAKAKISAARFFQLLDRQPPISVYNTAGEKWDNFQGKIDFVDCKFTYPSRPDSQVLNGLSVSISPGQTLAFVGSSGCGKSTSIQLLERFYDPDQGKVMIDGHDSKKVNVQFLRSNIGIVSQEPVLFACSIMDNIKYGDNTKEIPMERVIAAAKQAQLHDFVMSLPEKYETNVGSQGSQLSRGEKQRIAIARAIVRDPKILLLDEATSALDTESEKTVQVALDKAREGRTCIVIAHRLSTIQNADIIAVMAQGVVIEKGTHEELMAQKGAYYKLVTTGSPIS

CC(C)c1nc(N(C)S(C)(=O)=O)nc(-c2ccc(F)cc2)c1/C=C/[C@@H](O)C[C@@H](O)CC(=O)O
Ki [1]: > 10 µM | Ki [2]: > 10 µM

CC(C)c1c(C(=O)Nc2ccccc2)c(-c2ccccc2)c(-c2ccc(F)cc2)n1CC[C@@H]1C[C@@H](O)CC(=O)O1
Ki [1]: > 10 µM | Ki [2]: > 10 µM

CCC(C)(C)C(=O)O[C@H]1C[C@@H](C)C=C2C=C[C@H](C)[C@H](CC[C@@H]3C[C@@H](O)CC(=O)O3)[C@H]21 [2,2-dimethylbutyric acid, 8-ester with (4R,6R)-6-(2-((1S,2S,6R,8S,8aR)-1,2,6,7,8,8a-hexahydro-8-hydroxy-2,6-dimethyl-1-naphthyl)ethyl)tetrahydro-4-hydroxy-2H-pyran-2-one]
Ki [1]: > 10 µM

CC[C@H](C)C(=O)O[C@H]1C[C@H](O)C=C2C=C[C@H](C)[C@H](CC[C@@H](O)C[C@@H](O)CC(=O)O)[C@H]21 [(3R,5R)-7-[(1S,2S,6S,8S,8aR)-6-hydroxy-2-methyl-8-{[(2S)-2-methylbutanoyl]oxy}-1,2,6,7,8,8a-hexahydronaphthalen-1-yl]-3,5-dihydroxyheptanoic acid]
Ki [1]: > 10 µM | Ki [2]: > 10 µM

COCc1c(C(C)C)nc(C(C)C)c(/C=C/[C@@H](O)C[C@@H](O)CC(=O)O)c1-c1ccc(F)cc1 [(3R,5S,6E)-7-[4-(4-fluorophenyl)-5-(methoxymethyl)-2,6-bis(propan-2-yl)pyridin-3-yl]-3,5-dihydroxyhept-6-enoic acid]
Ki [1]: > 10 µM

CC(C)n1c(/C=C/[C@@H](O)C[C@@H](O)CC(=O)O)c(-c2ccc(F)cc2)c2ccccc21 [CAS_93957-54-1]
Ki [1]: > 10 µM

O=C(O)C[C@H](O)C[C@H](O)/C=C/c1c(C2CC2)nc2ccccc2c1-c1ccc(F)cc1 [CAS_147511-69-1]
Ki [1]: > 10 µM | Ki [2]: > 10 µM

CC(C)c1c(C(=O)Nc2ccccc2)c(-c2ccccc2)c(-c2ccc(F)cc2)n1CC[C@@H](O)C[C@@H](O)CC(=O)O [CI 981]
Ki [1]: 7.57 µM

CCC(C)(C)C(=O)O[C@H]1C[C@@H](C)C=C2C=C[C@H](C)[C@H](CC[C@@H](O)C[C@@H](O)CC(=O)O)[C@H]21 [Simvastatin acid]
Ki [1]: > 10 µM | Ki [2]: > 10 µM
